Earlier results on one molecule are cited in publication PMC9311059, “P‐Glycoprotein and Breast Cancer Resistance Protein Transporter Inhibition by Cyclosporine and Quinidine on the Pharmacokinetics of Oral Rimegepant in Healthy Subjects” (Clinical Pharmacology in Drug Development, 2022).

For the series the following is noted: oral midazolam coadministered with cyclosporine; cited from earlier work.

For the molecule `Cc1ncc2n1-c1ccc(Cl)cc1C(c1ccccc1F)=NC2` [midazolam], the “change in midazolam Cmax” value is given as “no meaningful change” and the “increase in midazolam AUC” value is on record as 46%.
